Type in all cases: cell-based
In experiment [1] the test system is human Raji lymphoma cells. Nature of the experiment: Raji lymphoma cell MTT assay.
Another experiment has as its target T1, MCT1 (Mus musculus, UniProt P53986).
T1 sequence (P53986 1-493): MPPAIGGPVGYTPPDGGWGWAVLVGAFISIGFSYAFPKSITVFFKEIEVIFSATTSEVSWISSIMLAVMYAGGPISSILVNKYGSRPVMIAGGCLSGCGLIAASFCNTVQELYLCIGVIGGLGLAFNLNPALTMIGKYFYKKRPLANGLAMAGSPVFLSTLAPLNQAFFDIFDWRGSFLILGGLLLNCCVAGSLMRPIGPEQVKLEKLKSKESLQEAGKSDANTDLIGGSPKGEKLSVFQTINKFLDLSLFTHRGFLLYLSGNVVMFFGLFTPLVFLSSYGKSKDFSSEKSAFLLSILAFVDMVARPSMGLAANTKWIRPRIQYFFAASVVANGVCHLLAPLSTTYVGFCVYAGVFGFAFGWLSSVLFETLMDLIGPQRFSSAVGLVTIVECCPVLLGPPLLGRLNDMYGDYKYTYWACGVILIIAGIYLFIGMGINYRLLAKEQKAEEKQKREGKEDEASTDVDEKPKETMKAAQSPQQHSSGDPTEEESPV
Nature of the experiment: MCF7_MCT1 14C-lactate transport assay. The following applies: IC50 (nM) lactate transport, labeled (14C) lactate transport, MCF7 breast cancer cells engineered to overexpress MCT1, 10 min on ice.

A further experiment concerns the target T2, human MCT4 (Homo sapiens, UniProt O15427).
T2 sequence (O15427 1-465): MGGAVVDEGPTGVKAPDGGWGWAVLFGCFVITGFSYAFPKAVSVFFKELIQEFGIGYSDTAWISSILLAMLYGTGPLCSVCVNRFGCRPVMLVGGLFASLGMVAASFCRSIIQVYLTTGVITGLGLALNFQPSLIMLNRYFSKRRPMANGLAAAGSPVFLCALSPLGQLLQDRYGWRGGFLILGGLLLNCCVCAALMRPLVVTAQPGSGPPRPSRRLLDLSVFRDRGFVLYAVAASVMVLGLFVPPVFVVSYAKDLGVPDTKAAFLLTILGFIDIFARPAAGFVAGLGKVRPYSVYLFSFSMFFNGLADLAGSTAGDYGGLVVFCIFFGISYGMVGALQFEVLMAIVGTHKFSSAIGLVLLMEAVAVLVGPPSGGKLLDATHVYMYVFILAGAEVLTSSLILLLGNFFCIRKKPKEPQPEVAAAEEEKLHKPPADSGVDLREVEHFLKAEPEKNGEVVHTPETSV
As to the kind of experiment: 14C lactate uptake in MCF7_MCT4 cells. The note with it: increased uptake versus parental MCF7 cells.

For the next experiment, the system named is MCF7_MCT4 cells. Nature of the experiment: MCF7_MCT4 MTT assay. The following applies: Homo sapiens, 96 h, read-out: growth inhibition EC50, MCF7_MCT4 cells.

Bounds are passed on as bounds.

With `COCCCCCc1nc2c(=O)n(C)c(=O)n(CC(C)C)c2nc1Cc1cccc2ccccc12` [Compound 28], the “activity in Raji lymphoma cell proliferation assay (in words)” value (from here on “activity”) in experiment [1] was “largely inactive”.
`CC(C)Cn1c(=O)n(C)c(=O)c2nc(SCCCO)c(Cc3cccc4ccccc34)nc21` [Compound 15b] showed an IC50 on MCT1 of 858 nM.
As to `CC(C)Cn1c(=O)n(C)c(=O)c2nc(SCCCCO)c(Cc3cccc4ccccc34)nc21` [Compound 15c], in experiment [1], the “fold higher EC50 than clinical compound 2” value is 2–4 fold.
Take `CC(C)Cn1c(=O)n(C)c(=O)c2nc(CCCCCO)c(Cc3cccc4ccccc34)nc21` [Compound 23b]: in experiment [1], the “fold higher EC50 than clinical compound 2” value is given as 2–4 fold. For the same compound, on MCT1, the IC50 amounted to 192 nM.
For the compound `CC(C)Cn1c(=O)n(C)c(=O)c2nc(CCCCO)c(Cc3cccc4ccccc34)nc21` [Compound 23a], at MCT1, the IC50 was more than 2000 nM.
Regarding `CC(C)Cn1c(=O)n(C)c(=O)c2[nH]c(=O)c(Cc3cccc4ccccc34)nc21` [Compound 12], the “activity” value in experiment [1] was “inactive”.
Turning to `CC(C)Cn1c(=O)n(C)c(=O)c2nc(/C=C\CCCO)c(Cc3cccc4ccccc34)nc21` [Compound 27], the “fold higher EC50 than clinical compound 2” value in experiment [1] is reported as 2–4 fold. The same compound displayed an IC50 at MCT1 of 116 nM.
On to `CC(C)Cc1nn(C)c(=O)c2c(SCCCO)n(Cc3cccc4ccccc34)cc12` [Compound 1, reference compound], for which the “effect on 14C lactate uptake in MCF7_MCT4 cells (in words)” value on human MCT4 was “not inhibited”. Besides, the EC50 with MCF7_MCT4 cells is more than 10000 nM.
Take `CC(C)Cn1c(=O)n(C)c(=O)c2c1nc(Cc1cccc3ccccc13)c(=O)n2CCCCCCO` [Compound 14d]: the “activity” value in experiment [1] was “inactive”.
Compound `CC(C)Cn1c(=O)n(C)c(=O)c2c1nc(Cc1cccc3ccccc13)c(=O)n2CCCCO` [Compound 14b] showed an IC50 at MCT1 of 548 nM. That is a sub-micromolar value.
On to `Cc1n[nH]c(C)c1Cc1nc2c(nc1CCCCCO)c(=O)n(C)c(=O)n2CC(C)C` [Compound 31], for which the “activity” value in experiment [1] was “inactive”.

Source of the values: article PMC4161152 (Journal of Medicinal Chemistry, 2014).
